The source of these data is patent US20160089464A1, “MALODOR REDUCTION COMPOSITIONS” (The Procter & Gamble Company, priority 2014, published 2016).

One data set in a line: Comment Code material properties: vapor pressure, ClogP, probability of ingredient color instability, odor detection threshold, melamine formaldehyde PMC headspace response ratio and leakage, liquid dish neat product liquid-air partition coefficient. In kind it is physicochemical. As to conditions: Table 1 materials; each letter of the code is one property class (vapor pressure, ClogP, color instability, odor detection threshold, PMC headspace ratio, PMC leakage, liquid dish liquid-air partition coefficient).
With `CCCCCCC/C=C\CCC=O` [Material 1045], the “Comment Code” value is “BDFHJK”. Same read-out and setting: the same measure for `CC(=O)CCc1ccc2c(c1)OCO2` [Material 976]: “CEFGJ”.

As to `C=C1CC2CCC1C2(C)C` (stereo not shown) [Material 711], the “Comment Code” value is given as “ADEFGIJKL”.

As to `CC(CC=O)CCc1ccccc1` (stereo not shown) [Material 807], the “Comment Code” value is “BDFHJK”.

For `CCCCCC(C=O)=Cc1ccc(C)cc1` [Material 769], the “Comment Code” value was “DHJ”. Still for that read-out and setting: the same measure for `CCCCCOC(=O)C=Cc1ccccc1` [Material 671]: “DEFHJK”; for `C=C(C)C1CC=C(C=O)CC1` (stereo not shown) [Material 946]: “ACHIJK”. `CC(C)(O)CCc1ccccc1` [Material 639]: the “Comment Code” value was “CEFGJK”. Still for that read-out and setting: with `C=C1CCC2C3C(C(C)C)CCC2(C)C13` (stereo not shown) [Material 631] the entry was “BDEFHJKL”.

For the molecule `CCC=C(C)C(O)CCCCC` (stereo not shown) [Material 1104], the “Comment Code” value is reported as “BDEFHIJK”.

Consider `CCCCC/C=C/C=C\C(=O)OCC` [Material 942], for which the “Comment Code” value was “BDEFHJK”. With `CC1=CCC(O)(C(C)C)CC1` (stereo not shown) [Material 800], the “Comment Code” value is recorded as “BCHIJK”. On to `CC1=C2C(CC1)C(C)CCC1C2C1(C)C` (stereo not shown) [Material 708], for which the “Comment Code” value was “BDEFHJKL”. Consider `CCC(=O)C=CC1C(C)=CCCC1(C)C` (stereo not shown) [Material 700], for which the “Comment Code” value was “BDHJK”.

On to `CC1=CCCC2(C)CCC(C(C)(C)O)CC12` (stereo not shown) [Material 712], for which the “Comment Code” value was “DEFHJK”. Still for that read-out and setting: the same measure for `CCCOC(C)OCCC` [Material 767]: “ACEFGIKL”; for `CCC(C)CCCC(C)C=O` (stereo not shown) [Material 866]: “ADFGIJKL”; for `CC1CC(C)(c2ccccc2)CO1` (stereo not shown) [Material 1006]: “BDEFHJK”.

The data set is the same for the next values; noted with them: cell strings several class symbols together; each letter is one property class of L1.
Consider `CC1C(C)(C)C2=C(C3OC(C)(C)OC3CC2)C1(C)C` (stereo not shown) [Material 23], for which the “Comment Code” value is on record as “DEFHJK”.

Take `CCCCCCCOC(C)=O` [Material 283]: the “Comment Code” value is recorded as “ADEFHKL”. Same read-out and setting: the same measure for `C=C1CCC2C3C(C(C)C)CCC2(C)C13` (stereo not shown) [Material 631]: “BDEFHJKL”.

For `N#CC=Cc1ccccc1` [Material 549], the “Comment Code” value is reported as “ACEFGIK”. Consider `C=C1[C@H]2CC[C@H](CO)[C@@]23CC[C@H](C3)C1(C)C` [Material 183], for which the “Comment Code” value is listed as “CEFHJK”. On the same count and under the same terms, with `CCCCCC1CCCC1O` (stereo not shown) [Material 836] the entry was “DEFHIKL”; with `CC(C)=CCCC(C)CC=O` (stereo not shown) [Material 889], “ACHIJKL”. As for `CC1CCC(=O)C1=O` (stereo not shown) [Material 810], the “Comment Code” value is listed as “ACEFGIKL”. On the same count and under the same terms, the same measure for `CC(C)=CCCC(C)CC#N` (stereo not shown) [Material 509]: “BCEFGIKL”; for `CCCCCC1=C(C)CCC1=O` [Material 438]: “BCFHIJKL”; for `CC/C=C\CCOC(=O)C1CC1` [Material 84]: “BCEFHIKL”.

Turning to `C=C(C)[C@@H]1CC[C@@H](C)C(=O)C1` [Material 1081], the “Comment Code” value was “ACGIJKL”. Same read-out and setting: with `C=CCOC(=O)COc1ccccc1` [Material 743] the entry was “BCGK”; with `CC12CCC(C1)C(C)(C)C2O` (stereo not shown) [Material 366], “ACGIJKL”. In the case of `CC(C)=CCCC(C)CCOC=O` (stereo not shown) [Material 512], the “Comment Code” value was “BCEFGJKL”.

As to `CC(C)CCOC(=O)C(C)C` [Material 239], the “Comment Code” value is reported as “ACEFGIJKL”. For the molecule `CC/C=C\CC1=C(C)CCC1=O` [Material 526], the “Comment Code” value is given as “BCHIJKL”. Same read-out and setting: with `CC1=C2C(CC1)C(C)CCC1C2C1(C)C` (stereo not shown) [Material 708] the entry was “BDEFHJKL”.

Consider `CCCCCCOC(=O)CCC` [Material 270], for which the “Comment Code” value is reported as “BDEFHJKL”.

For `CC(C)=CCCC(C)CC=O` (stereo not shown) [Material 518], the “Comment Code” value is “ACHIJKL”. For the molecule `CC1=CCCC2(C)CCC(C(C)(C)O)CC12` (stereo not shown) [Material 712], the “Comment Code” value was “DEFHJK”. As for `CCC(=O)N(CC)c1cccc(C)c1` [Material 755], the “Comment Code” value is recorded as “CEFHJK”. As for `CCCCCCCC1(C)OCC(C)O1` (stereo not shown) [Material 838], the “Comment Code” value is “BDEFHJK”. With `COc1ccc(CC(C)=O)cc1` [Material 983], the “Comment Code” value is given as “BCEFHK”.

Still in this data set, the particulars now being: letter codes A-L: vapor pressure, ClogP, probability of ingredient color instability, odor detection threshold, PMC headspace response ratio, PMC leakage, liquid dish liquid-air partition coefficient; Table 1 materials with at least one MORV from 1 to 5.
For the molecule `CC1(C)C2CCC3(C2)C1C1(CCC3(C)C)OCCO1` (stereo not shown) [Material 1145], the “Comment Code” value is reported as “DEFHJK”.
